In patent publication US20260207563A1, “UREA COMPOUNDS AS ACTIVATORS OF POTASSIUM CHANNELS KV7.2/7.3 USEFUL IN THE TREATMENT OF CNS AND PNS DISORDERS” (ANGELINI PHARMA S.P.A., priority 2022, published 2026):

How the values were obtained:
Assay type in all cases: cell-based
[1] = target: T1, heteromeric KV7.2/KV7.3 channels (KCNQ2, KCNQ3) (Homo sapiens, UniProt O43525+O43526); assay: Automated patch-clamp (Sophion Qube 384) potency assay against KV7.2/KV7.3 channels; conditions: CHO-K1/Kv7.2/Kv7.3 cells; for EC50: EC50 from concentration-response of shift in Vhalf, 10 concentrations up to 30 μM, read-out: Kv7.2/7.3 EC50; for Kv7.2/7.3 ΔV1/2: maximal shift in the Vhalf from the top of the curve
T1 construct: expressed in transfected cells; host or cells: CHO-K1
Text: Assessment of In Vitro Potency Against KV7.2/KV7.3 Channels
An automated patch-clamp assay on the Sophion Qube 384 was developed for potency testing to identify small molecule activators of heteromeric KV7.2/KV7.3 channels (KCNQ2, Uniprot ID 043526; KCNQ3, Uniprot 043525).
The cell line used was a stably transfected CHO-K1 cell line with constitutive KV7.2/KV7.3 expression.
CHO-K1/Kv7.2/Kv7.3 cells were maintained in the following culture media: • DMEM/F-12 with GlutaMAX™ (Gibco 31331-028), • 10% Fetal clone 2 serum (Perbio Science SH30066.03), • 1 mg/ml Geneticin™ selective antibiotic (G418, Invitrogen 1013027), and • 5 μg/ml BlasticidinS HCl (Invivogen Ant-bl-5).
On the day of the experiment, cells were resuspended in serum free media, counted and diluted to a final concentration of 3.5×10^6 cells per ml of media.
Cells were then placed onto the Sophion Qube 384 and rested for a minimum of 1 hour.
The following solutions were used for recording: • extracellular solution (in mM): 145 NaCl, 4 KCl, 1 MgCl2, 2 CaCl2), 10 HEPES, 10 glucose, pH 7.4, 315-320 mOsm. • intracellular solution (in mM): 120 KCl, 5.74 CaCl2), 1.75 MgCl2, 10 EGTA, 10 HEPES, 5 Na2ATP, pH 7.2, adjusted to 315 mOsm with sucrose.
After establishing the whole-cell configuration, cells were held at −80 mV throughout the experiment. A current-voltage (I-V) protocol stepping from −100 to +20 mV for 1 second was applied to measure Kv7.2/Kv7.3 currents, each step was followed by a 200 ms pulse to 0 mV to measure the tail currents. From the I-V protocol a Boltzmann fit was applied to generate activation curves. Data were sampled at 25 kHz and filtered at 5 kHz (Bessel). Data were produced using multihole QChips. The I-V protocol was applied several times to establish the response in control conditions (typically 0.3% DMSO) and in the presence of the test compound.
Data were reviewed in Sophion Analyser version 6.5.2 (Sophion Bioscience) for recording quality and filters were applied to remove any failed wells. Leak subtraction was applied to all recordings. Data filters for multihole QChips were typically: seal resistance>4 MΩ, capacitance >20 pF, baseline VHalf between 0 to −40 mV, baseline holding current between −2 to 2 nA, baseline steady state current at 20 mV >4 nA unless otherwise stated.
(§1) Analysis of Data for Assessment of Potency
(§2) 10 concentrations of test compounds were applied to individual wells in quadruplicate to assess potency as a 1 in 3 dilution series from the maximal concentration of 30 μM. The average shift in the voltage for half activation (Vhalf) for each concentration was used to generate concentration-response curves fitted with a 4-parameter logistic model to estimate the EC50 from the point of inflection of the curve and the maximal shift in the Vhalf from the top of the curve.
(§3) The lower the EC50 value, the higher the potency of the analyzed compound. The selectivity criteria is assigned on the basis of the maximal shift in the Vhalf at 30 μM. […] In Table 3, ND means that selectivity was not determined.

[2] = target: T2, homomeric KV7.4 channel (KCNQ4) (Homo sapiens, UniProt P56696); assay: Automated patch-clamp (Qube) counter-screening assay against KV7.4 channel; conditions: CHO-K1 cells expressing KV7.4; class by maximal shift in the Vhalf at 30 μM
T2 construct: host or cells: CHO-K1
Text: Assessment of In Vitro Potency Against KV7.4 Channels
A counter-screening assay was also developed on the Qube against the homomeric KV7.4 channel (KCNQ4, Uniprot ID P56696). The cell line used was a stably transfected CHO-K1 with constitutive KV7.4 expression supplied by Charles River Laboratories.
CHO-K1 cells stably expressing KV7.4 channels were maintained in the following culture media: • Hams F-12 with GlutaMAX™ (Life Technologies 31765027), • 10% Fetal clone 2 serum (Perbio Science SH30066.03), and • 250 μg/ml Geneticin™ selective antibiotic (G418, Invitrogen 1013-027).
(§4) Cell maintenance, preparation, recording conditions and voltage protocols were all identical to those above.
as §1, §2, §3

[3] = target: T3, heteromeric KV7.3/KV7.5 channel (KCNQ3, KCNQ5) (Homo sapiens, UniProt O43525+Q9NR82); assay: Automated patch-clamp counter-screening against KV7.3/KV7.5 channel; conditions: HEK293 cells expressing Kv7.3/KV7.5; class by maximal shift in the Vhalf at 30 μM
T3 construct: host or cells: HEK293
Description: Assessment of in vitro potency against KV7.3/KV7.5 channels
Counter-screening was also carried out against the heteromeric KV7.3/KV7.5 channel (KCNQ3, Uniprot ID 043525; KCNQ5, Uniprot ID Q9NR82). The cell line used was a stably transfected HEK293 cell line with constitutive Kv7.3 expression and tetracycline inducible KV7.5 expression supplied by Charles River Laboratories.
Cells were maintained in the following culture media: • DMEM/F-12 with GlutaMAX™ (Life Technologies 31331-028), • 10% Tet Systems FCS (Clonetech 631106), • 500 μg/ml Geneticin™ selective antibiotic (G418, Invitrogen 1013-027), • 5 μg/ml Blasticidin S HCl (InvivoGen ant-bl-5), and • 100 μg/ml Zeocin (InvivoGen: ant-zn-5).
as §4, §1, §2, §3

EC50 [1] [nM]	Kv7.2/7.3 ΔV1/2 [1] [mV]	SMILES	Kv7.4 selectivity criteria [2]	Kv7.3/7.5 selectivity criteria [3]
432	21.41	Cc1ccccc1NC(=O)NCc1ccnc(OCC(F)(F)F)c1 [Compound 46, 1-(o-Tolyl)-3-((2-(2,2,2-trifluoroethoxy)pyridin-4-yl)methyl)urea]	B (Non-selective compounds showed Kv7.4 and/or Kv7.3/7.5 ΔV1/2 higher than 15 mV (letter B in table 3))	B (Non-selective compounds showed Kv7.4 and/or Kv7.3/7.5 ΔV1/2 higher than 15 mV (letter B in table 3))
435	31.09	O=C(NCc1ccnc(OCC(F)(F)F)c1)NCC1CCCCC1 [Compound 36, 1-(Cyclohexylmethyl)-3-((2-(2,2,2-trifluoroethoxy)pyridin-4-yl)methyl)urea]	A (Selective compounds showed Kv7.4 and/or Kv7.3/7.5 ΔV1/2 equal to or lower than 15 mV (letter A in table 3))	A (Selective compounds showed Kv7.4 and/or Kv7.3/7.5 ΔV1/2 equal to or lower than 15 mV (letter A in table 3))
649	24.69	O=C(NCCC1(C(F)(F)F)CC1)NCc1ccnc(OCC(F)F)c1 [Compound 18, 1-((2-(2,2-Difluoroethoxy)pyridin-4-yl)methyl)-3-(2-(1-(trifluoromethyl)cyclopropyl)ethyl)urea]	A (Selective compounds showed Kv7.4 and/or Kv7.3/7.5 ΔV1/2 equal to or lower than 15 mV (letter A in table 3))	A (Selective compounds showed Kv7.4 and/or Kv7.3/7.5 ΔV1/2 equal to or lower than 15 mV (letter A in table 3))
2390	21.49	O=C(NCc1ccnc(OCc2ccccc2)c1)NCC(O)C1(C(F)(F)F)CC1 (racemic) [Compound 5, (±)-1-((2-(Benzyloxy)pyridin-4-yl)methyl)-3-(2-hydroxy-2-(1-(trifluoromethyl)cyclopropyl)ethyl)urea]	A (Selective compounds showed Kv7.4 and/or Kv7.3/7.5 ΔV1/2 equal to or lower than 15 mV (letter A in table 3))	A (Selective compounds showed Kv7.4 and/or Kv7.3/7.5 ΔV1/2 equal to or lower than 15 mV (letter A in table 3))
254	26.23	C[C@H](Oc1cc(CNC(=O)NCCC2(C(F)(F)F)CC2)ccn1)C(F)(F)F [Compound 47, (S)-1-(2-(1-(Trifluoromethyl)cyclopropyl)ethyl)-3-((2-((1,1,1-trifluoropropan-2-yl)oxy)pyridin-4-yl)methyl)urea]	A (Selective compounds showed Kv7.4 and/or Kv7.3/7.5 ΔV1/2 equal to or lower than 15 mV (letter A in table 3))	A (Selective compounds showed Kv7.4 and/or Kv7.3/7.5 ΔV1/2 equal to or lower than 15 mV (letter A in table 3))
285	17.59	O=C(NCc1ccnc(OCC(F)(F)F)c1)NCC1CCCc2ccccc21 (stereo not drawn) [Compound 141]	A (Selective compounds showed Kv7.4 and/or Kv7.3/7.5 ΔV1/2 equal to or lower than 15 mV (letter A in table 3))	A (Selective compounds showed Kv7.4 and/or Kv7.3/7.5 ΔV1/2 equal to or lower than 15 mV (letter A in table 3))
1830	27.09	O=C(NCCC1(C(F)(F)F)CC1)NCc1cc(OCc2ccccc2)ncn1 [Compound 11, 1-((6-(Benzyloxy)pyrimidin-4-yl)methyl)-3-(2-(1-(trifluoromethyl)cyclopropyl)ethyl)urea]	A (Selective compounds showed Kv7.4 and/or Kv7.3/7.5 ΔV1/2 equal to or lower than 15 mV (letter A in table 3))	B (Non-selective compounds showed Kv7.4 and/or Kv7.3/7.5 ΔV1/2 higher than 15 mV (letter B in table 3))
2410	22.74	CC(C)(OCCNC(=O)NCc1ccnc(OCC(F)(F)F)c1)C(F)(F)F [Compound 48, 1-(2-((1,1,1-Trifluoro-2-methylpropan-2-yl)oxy)ethyl)-3-((2-(2,2,2-trifluoroethoxy)pyridin-4-yl)methyl)urea]	A (Selective compounds showed Kv7.4 and/or Kv7.3/7.5 ΔV1/2 equal to or lower than 15 mV (letter A in table 3))	A (Selective compounds showed Kv7.4 and/or Kv7.3/7.5 ΔV1/2 equal to or lower than 15 mV (letter A in table 3))
11700	18.78	CC(F)(F)c1cc(CNC(=O)N[C@@H]2CCc3ccc(F)cc32)ccn1 [Compound 124]	A (Selective compounds showed Kv7.4 and/or Kv7.3/7.5 ΔV1/2 equal to or lower than 15 mV (letter A in table 3))	A (Selective compounds showed Kv7.4 and/or Kv7.3/7.5 ΔV1/2 equal to or lower than 15 mV (letter A in table 3))
1580	55.93	O=C(NCc1ccnc(OCC(F)(F)F)c1)NC1CCC(F)(F)CC1 [Compound 71, 1-(4,4-Difluorocyclohexyl)-3-((2-(2,2,2-trifluoroethoxy)pyridin-4-yl)methyl)urea]	B (Non-selective compounds showed Kv7.4 and/or Kv7.3/7.5 ΔV1/2 higher than 15 mV (letter B in table 3))	B (Non-selective compounds showed Kv7.4 and/or Kv7.3/7.5 ΔV1/2 higher than 15 mV (letter B in table 3))
600	30.51	O=C(NCc1ccnc(OCc2ccccc2)c1)Nc1cccc(F)c1 [Compound 1, 1-((2-(Benzyloxy)pyridin-4-yl)methyl)-3-(3-fluorophenyl)urea]	B (Non-selective compounds showed Kv7.4 and/or Kv7.3/7.5 ΔV1/2 higher than 15 mV (letter B in table 3))	B (Non-selective compounds showed Kv7.4 and/or Kv7.3/7.5 ΔV1/2 higher than 15 mV (letter B in table 3))
931	14.07	Cc1ccc2c(c1)CCC2NC(=O)NCc1ccnc(OCC(F)(F)F)c1 (stereo not drawn) [Compound 129]	A (Selective compounds showed Kv7.4 and/or Kv7.3/7.5 ΔV1/2 equal to or lower than 15 mV (letter A in table 3))	A (Selective compounds showed Kv7.4 and/or Kv7.3/7.5 ΔV1/2 equal to or lower than 15 mV (letter A in table 3))
